Reference: patent publication US7811797B2, “α-isomaltosylglucosaccharide-forming enzyme, process and uses of the same” (Kabushiki Kaisha Hayashibara Seibutsu Kagaku Kenkyujo, priority 2000, dated 2010)

Assays:
Set-up in all cases: key: −: it showed no change; +: it showed a slight reduction of the color spot of the substrate and the formation of other reaction product; ++: it showed a high reduction of the color spot of the substrate and the formation of other reaction product; +++: it showed a substantial disappearance of the substrate spot and the formation of other reaction product
[1] = system: α-isomaltosylglucosaccharide-forming enzyme; assay: Action on saccharides (substrates), Enzyme of Strain C9; format: biochemical, Bacillus globisporus C9; conditions: two units/g substrate, substrate 2% (w/v), 30° C., pH 6.0, 24 hours, TLC
Experimental: (§1) It was tested whether saccharides can be used as substrates for the α-isomaltosylglucosaccharide-forming enzyme. For the purpose, a solution of maltose, maltotriose, maltotetraose, maltopentaose, maltohexaose, maltoheptaose, isomaltose, isomaltotriose, panose, isopanose, trehalose, kojibiose, nigerose, neotrehalose, cellobiose, gentibiose, maltitol, maltotriitol, lactose, sucrose, erlose, selaginose, maltosyl glucoside, or isomaltosyl glucoside was prepared.
(§2) To each of the above solutions was added two units/g substrate of a purified specimen of α-isomaltosylglucosaccharide-forming enzyme from either Bacillus globisporus C9 obtained by the method in Experiment 4-2, Bacillus globisporus C11 obtained by the method in Experiment 7-2, Bacillus globisporus N75 obtained by the method in Experiment 11-2, or Arthrobacter globiformis A19 obtained by the method in Experiment 15-2, and the resulting each solution was adjusted to give a substrate concentration of 2% (w/v) and incubated at 30° C. and pH 6.0, except for using pH 8.4 for the enzyme from Arthrobacter globiformis A19, for 24 hours. The enzyme solutions before and after the enzymatic reactions were respectively analyzed on TLC disclosed in Experiment 1 to confirm whether the enzymes acted on these substrates.

[2] = system: α-isomaltosylglucosaccharide-forming enzyme; assay: Action on saccharides (substrates), Enzyme of Strain C11; format: biochemical, Bacillus globisporus C11; conditions: two units/g substrate, substrate 2% (w/v), 30° C., pH 6.0, 24 hours, TLC
Experimental: as §1, §2

[3] = system: α-isomaltosylglucosaccharide-forming enzyme; assay: Action on saccharides (substrates), Enzyme of Strain N75; format: biochemical, Bacillus globisporus N75; conditions: two units/g substrate, substrate 2% (w/v), 30° C., pH 6.0, 24 hours, TLC
Experimental: as §1, §2

[4] = system: α-isomaltosylglucosaccharide-forming enzyme; assay: Action on saccharides (substrates), Enzyme of Strain A19; format: biochemical, Arthrobacter globiformis A19; conditions: two units/g substrate, substrate 2% (w/v), 30° C., pH 8.4, 24 hours, TLC
Experimental: as §1, §2

Row | Compound | Enzymatic action, Enzyme of Strain C9 [1] | Enzymatic action, Enzyme of Strain C11 [2] | Enzymatic action, Enzyme of Strain N75 [3] | Enzymatic action, Enzyme of Strain A19 [4]
1 | OC[C@H]1O[C@H](O[C@H]2[C@H](O)[C@@H](O)[C@H](O)O[C@@H]2CO)[C@H](O)[C@@H](O)[C@@H]1O [Maltose] | + | + | + | +
2 | OC[C@H]1O[C@H](O[C@H]2[C@H](O)[C@@H](CO)OC(O)[C@@H]2O)[C@H](O)[C@@H](O)[C@@H]1O (stereo partly shown) [Nigerose] | + | + | + | +
3 | OC[C@@H](O)[C@@H](O[C@H]1O[C@H](CO)[C@@H](O[C@H]2O[C@H](CO)[C@@H](O)[C@H](O)[C@H]2O)[C@H](O)[C@H]1O)[C@H](O)[C@@H](O)CO [Maltotriitol] | + | + | + | +
4 | Maltotriose | ++ | ++ | ++ | ++
5 | Maltohexaose | +++ | +++ | +++ | +++
6 | OC[C@H]1O[C@@H](O[C@H]2O[C@H](CO)[C@@H](O)[C@H](O)[C@H]2O)[C@H](O)[C@@H](O)[C@@H]1O [Neotrehalose] | + | + | + | +
7 | OC[C@H]1O[C@@](CO)(O[C@H]2O[C@H](CO)[C@@H](O[C@H]3O[C@H](CO)[C@@H](O)[C@H](O)[C@H]3O)[C@H](O)[C@H]2O)[C@@H](O)[C@@H]1O [Erlose] | + | + | + | +
8 | OC[C@H]1O[C@H](O[C@H]2O[C@H](CO)[C@@H](O)[C@H](O)[C@H]2O[C@H]2O[C@H](CO)[C@@H](O)[C@H](O)[C@H]2O)[C@H](O)[C@@H](O)[C@@H]1O [Selaginose] | − | − | − | −
9 | OC[C@H]1O[C@H](O[C@H]2C(O)O[C@H](CO)[C@@H](O)[C@@H]2O)[C@H](O)[C@@H](O)[C@@H]1O (stereo partly shown) [Kojibiose] | + | + | + | +
10 | OC[C@H]1O[C@H](O[C@H]2[C@H](O)[C@@H](O)[C@@H](OC[C@H]3OC(O)[C@H](O)[C@@H](O)[C@@H]3O)O[C@@H]2CO)[C@H](O)[C@@H](O)[C@@H]1O (stereo partly shown) [Isopanose] | ++ | ++ | ++ | ++
11 | OC[C@H]1O[C@H](O[C@H]2O[C@H](CO)[C@@H](O[C@H]3O[C@H](CO)[C@@H](O)[C@H](O)[C@H]3O)[C@H](O)[C@H]2O)[C@H](O)[C@@H](O)[C@@H]1O [Maltosyl glucoside] | ++ | ++ | ++ | ++
12 | Isomaltosyl glucoside | − | − | − | −
13 | OC[C@H]1O[C@H](OC[C@H]2O[C@H](O[C@H]3[C@H](O)[C@@H](O)C(O)O[C@@H]3CO)[C@H](O)[C@@H](O)[C@@H]2O)[C@H](O)[C@@H](O)[C@@H]1O (stereo partly shown) [Panose] | − | − | − | −
14 | Maltoheptaose | +++ | +++ | +++ | +++
15 | Maltopentaose | +++ | +++ | +++ | +++
16 | OC[C@H]1O[C@H](O[C@H]2[C@H](O)[C@@H](O)[C@@H](O[C@H]3[C@H](O)[C@@H](O)[C@@H](O[C@H]4[C@H](O)[C@@H](O)C(O)O[C@@H]4CO)O[C@@H]3CO)O[C@@H]2CO)[C@H](O)[C@@H](O)[C@@H]1O (stereo partly shown) [Maltotetraose] | +++ | +++ | +++ | +++
